Patent US20070179060A1, “6-(Poly-substituted aryl)-4-aminopicolinates and their use as herbicides” (priority 2006, published 2007)

What was measured:
Test in all cases: Postemergence herbicidal activity
Assay type in all cases: in vivo
[1] = system: lambsquarter (Chenopodium album); conditions: post-emergent, after 14 days; for % Control CHEAL / pest or weed control at 140 g/ha: 140 g ai/ha
Description: (§1) Seeds or nutlets of the desired test plant species were planted in Sun Gro MetroMix® 306 planting mixture, which typically has a pH of 6.0 to 6.8 and an organic matter content of about 30 percent, in plastic pots with a surface area of 64 square centimeters. When required to ensure good germination and healthy plants, a fungicide treatment and/or other chemical or physical treatment was applied. The plants were grown for 7-21 days in a greenhouse with an approximate 15 hour photoperiod which was maintained at about 23-29° C. during the day and 22-28° C. during the night. Nutrients and water were added on a regular basis and supplemental lighting was provided with overhead metal halide 1000-Watt lamps as necessary. The plants were employed for testing when they reached the first or second true leaf stage. […] The concentrated stock solutions obtained were diluted with 20 mL of an aqueous mixture containing acetone, water, isopropyl alcohol, DMSO, Atplus 411F crop oil concentrate, and Triton® X-155 surfactant in a 48.5:39:10:1.5:1.0:0.02 v/v ratio to obtain spray solutions containing the highest application rates. […] Compound requirements are based upon a 12 mL application volume at a rate of 187 L/ha. Formulated compounds were applied to the plant material with an overhead Mandel track sprayer equipped with a […] nozzles calibrated to deliver 187 L/ha over an application area of 0.503 square meters at a spray height of 18 inches (43 cm) above the average plant canopy height. Control plants were sprayed in the same manner with the solvent blank. The treated plants and control plants were placed in a greenhouse as described above and watered by sub-irrigation to prevent wash-off of the test compounds. […] By applying the well-accepted probit analysis as described by J. Berkson in Journal of the American Statistical […], 48, 565 (1953) and by D.

[2] = system: redroot pigweed (Amaranthus retroflexus); conditions: post-emergent, after 14 days; for % Control AMARE / pest or weed control at 140 g/ha: 140 g ai/ha
Description: as §1

[3] = system: velvetleaf (Abutilon theophrasti); conditions: post-emergent, after 14 days; for % Control ABUTH / pest or weed control at 140 g/ha: 140 g ai/ha
Description: as §1

[4] = Chenopodium album, post-emergence, 336 h, read-out: % Control CHEAL
[5] = Amaranthus retroflexus, post-emergence, 336 h, read-out: % Control AMARE
[6] = Abutilon theophrasti, post-emergence, 336 h, read-out: % Control ABUTH

Molecule	% Control CHEAL [1] [%]	% Control AMARE [2] [%]	% Control ABUTH [3] [%]	pest or weed control at 140 g/ha [1, 4] [%]	pest or weed control at 140 g/ha [2, 5] [%]	pest or weed control at 140 g/ha [3, 6] [%]	also measured
COC(=O)c1nc(-c2ccc(Cl)c(C(C)(C)F)c2F)cc(N)c1Cl [Compound 25, 4-Amino-3-chloro-6-[4-chloro-2-fluoro-3-(1-fluoro-1-methylethyl)phenyl]-pyridine-2-carboxlic acid, methyl ester]	100	100	100	–	–	–	–
COC(=O)c1nc(-c2ccc(Cl)c(S(C)(=O)=O)c2F)cc(N)c1Cl [Compound 84, 4-amino-3-chloro-6-(4-chloro-2-fluoro-3-methanesulfonylphenyl)pyridine-2-carboxylic acid methyl ester]	–	–	–	70	75	80	–
COC(=O)c1nc(-c2c(F)cc(Cl)c(OC)c2Cl)cc(N)c1Cl [Compound 57, 4-Amino-3-chloro-6-(2,4-dichloro-6-fluoro-3-methoxyphenyl)pyridine-2-carboxylic acid, methyl ester]	–	–	–	100	100	100	–
Cc1c(F)ccc(-c2cc(N)c(Cl)c(C(=O)O)n2)c1F [Compound 97, 4-Amino-3-chloro-(2,4-difluoro-3-methylphenyl)pyridine-2-carboxylic acid]	80	85	65	–	–	–	–
CCC(F)c1c(Cl)ccc(-c2cc(NC(C)=O)c(Cl)c(C(=O)OC)n2)c1F (stereo not drawn) [Compound 32, 4-Acetylamino-3-chloro-6-[4-chloro-2-fluoro-3-(1-fluoropropyl)-phenyl]pyridine-2-carboxylic acid, methyl ester]	–	–	–	50	80	60	–
COC(=O)c1nc(-c2ccc(Cl)c([S+](C)[O-])c2F)cc(N)c1Cl (stereo not drawn) [Compound 83, 4-amino-3-chloro-6-(4-chloro-2-fluoro-3-methanesulfinyl-phenyl)pyridine-2-carboxylic acid methyl ester]	–	–	–	85	85	90	–
COC(=O)c1nc(-c2ccc(CF)c(OC)c2F)cc(N)c1Cl [Compound 72, 4-Amino-3-chloro-6-(2-fluoro-4-fluoromethyl-3-methoxyphenyl)pyridine-2-carboxylic acid, methyl ester]	–	–	–	80	20	100	–
COC(=O)c1nc(-c2ccc(Cl)c(C)c2Cl)cc(N)c1Cl [Compound 48, 4-Amino-3-chloro-6-(2,4-dichloro-3-methylphenyl)pyridine-2-carboxylic acid methyl ester]	–	–	–	–	–	–	pest or weed control at 101 g/ha ([1]; Chenopodium album, post-emergence, 336 h, 101 g ai/ha, read-out: % Control CHEAL): 85%; pest or weed control at 101 g/ha ([2]; Amaranthus retroflexus, post-emergence, 336 h, 101 g ai/ha, read-out: % Control AMARE): 80%; pest or weed control at 101 g/ha ([3]; Abutilon theophrasti, post-emergence, 336 h, 101 g ai/ha, read-out: % Control ABUTH): 98%
4-Amino-3-chloro-(2-chloro-4-difluoromethyl-6-fluoro-3-methoxy-phenyl)pyridine-2-carboxylic acid, methyl ester [Compound 53]	95	80	70	–	–	–	–
Nc1cc(-c2ccc(Cl)c(CF)c2F)nc(C(=O)O)c1Cl [Compound 114, 4-Amino-3-chloro-6-(4-chloro-2-fluoro-3-fluoromethylphenyl)pyridine-2-carboxylic acid]	–	–	–	95	85	95	–
COC(=O)c1nc(-c2ccc(Cl)c(OC)c2Br)cc(N)c1Cl [Compound 76, 4-Amino-6-(2-bromo-4-chloro-3-methoxyphenyl)-3-chloropyridine-2-carboxylic acid, methyl ester]	–	–	–	100	100	100	–
COC(=O)c1nc(-c2ccc(C#N)c(OC)c2F)cc(N)c1Cl [Compound 6, 4-Amino-3-chloro-6-(4-cyano-2-fluoro-3-methoxyphenyl)pyridine-2-carboxylic acid methyl ester]	–	–	–	95	100	90	–
CCCCOc1c(Cl)ccc(-c2cc(N)c(Cl)c(C(=O)OC)n2)c1F [Compound 60, 4-Amino-3-chloro-6-(4-chloro-3-butoxy-2-fluorophenyl)pyridine-2-carboxylic acid, methyl ester]	–	–	–	90	90	55	–
COC(=O)c1nc(-c2c(F)cc(F)c(OC)c2Cl)cc(N)c1Cl [Compound 55, 4-Amino-3-chloro-(2-chloro-4,6-difluoro-3-methoxyphenyl)pyridine-2-carboxylic acid, methyl ester]	90	100	100	–	–	–	–
COC(=O)c1nc(-c2c(F)cc(Cl)c(C(F)F)c2F)cc(N)c1Cl [Compound 54, 4-Amino-3-chloro-6-(4-chloro-3-difluoromethyl-2,6-difluorophenyl)pyridine-2-carboxylic acid, methyl ester]	–	–	–	100	100	100	–
COC(=O)c1nc(-c2c(F)cc(F)c(C(F)F)c2F)cc(N)c1Cl [Compound 78, 4-Amino-3-chloro-6-(3-difluoromethyl-2,4,6-trifluorophenyl)pyridine-2-carboxylic acid, methyl ester]	–	–	–	100	100	90	–
COC(=O)c1nc(-c2ccc(Cl)c(C(=O)OC)c2F)cc(N)c1Cl [Compound 39, 4-Amino-3-chloro-6-[4-chloro-2-fluoro-3-(methoxycarbonyl)phenyl]pyridine-2-carboxyic acid, methyl ester]	95	75	90	–	–	–	–
COC(=O)c1nc(-c2ccc(Cl)c(N(C)C)c2Cl)cc(N)c1Cl [Compound 37, 4-Amino-3-chloro-6-[2,4-dichloro-3-(dimethylamino)phenyl]pyridine-2-carboxylic acid, methyl ester]	–	–	–	100	100	100	–
CCC(F)c1c(Cl)ccc(-c2cc(N)c(Cl)c(C(=O)OC)n2)c1F (stereo not drawn) [Compound 66, 4-Amino-3-chloro-6-[4-chloro-2-fluoro-3-(1-fluoropropyl)phenyl]pyridine-2-carboxylic acid, methyl ester]	95	100	90	–	–	–	–
COC(=O)c1nc(-c2c(F)cc(Cl)c(C)c2F)cc(N)c1Cl [Compound 75, 4-Amino-3-chloro-6-(4-chloro-2,6-difluoro-3-methylphenyl)pyridine-2-carboxylic acid, methyl ester]	–	–	–	95	95	100	–
COC(=O)c1nc(-c2ccc(F)c(OC)c2F)cc(NC(C)=O)c1Cl [Compound 28, 4-Acetylamino-3-chloro-(2,4-difluoro-3-methoxyphenyl)pyridine-2-carboxylic acid, methyl ester]	95	100	100	–	–	–	–
CC(C)(F)c1c(Cl)ccc(-c2cc(N)c(Cl)c(C(=O)O)n2)c1Cl [Compound 127]	100	100	90	–	–	–	–
